US20240239792A1, “MODULATORS OF BCL-2 OR BCL-2/BCL-XL AND USES THEREOF” (APPICINE THERAPEUTICS (HK) LIMITED, priority 2021, published 2024)

What follows are compounds tested on DOHH2 cells (assay: CellTiter-Glo cell proliferation assay, DOHH2 cells). Settings: Homo sapiens, DOHH-2, 72 hours.
Assay type: cell-based
Procedure: The CellTiter-Glo® Luminescent Cell Viability Assay (Promega, G7573) was used to study the cellular potency of disclosed compounds herein. The cells were harvested during the logarithmic growth period and counted with hemocytometer. The DOHH2 cells were seeded at 1.6*10^4 in 90 ul DMEM medium supplemented with 10% fetal bovine serum (FBS) (as RS4;11 cells were seeded at 4000 in 90 ul RPMI-1640 medium with 10% FBS) per well in 96-well plates and treated with 10 ul of a serial dilution of compounds disclosed herein (maximum concentration and dilution ratio determined by the results of pre-experiment may vary) for 72 hours in a 5% CO2 incubator at 37° C. Cell viability was assessed according to the manufacturer's recommendations. After the plates return to the room temperature, 100 ul of CellTiter-Glo® reagent was added to 100 ul of cell culture. The mixture was agitated on an orbital shaker for 2 minutes or placed it at room temperature for 10 minutes to allow cell lysis and stabilization of luminescent signals. Luminescent signals were recorded using Envision 2104 instrument. And GI50 values were then calculated.

Compound | GI50 [µM]
O=C(NS(=O)(=O)c1ccc(NCC2CCOCC2)c([N+](=O)[O-])c1)c1ccc(N2CCN(C3CCCc4ccccc43)CC2)cc1Oc1cnc2[nH]ccc2c1 (stereo not shown) [Compound 2, 2-((1H-pyrrolo[2,3-b]pyridin-5-yl)oxy)-N-((3-nitro-4-(((tetrahydro-2H-pyran-4-yl)methyl)amino)phenyl)sulfonyl)-4-(4-(1,2,3,4-tetrahydronaphthalen-1-yl)piperazin-1-yl)benzamide] | > 5
CC1(C)CCC2(CC1)CC(CNc1ccc(S(=O)(=O)NC(=O)c3ccc(N4CCN([C@@H]5CCCCc6c(Cl)cccc65)CC4)cc3Oc3cnc4[nH]ccc4c3)cc1[N+](=O)[O-])C2 [Compound 136, (R)-2-((1H-pyrrolo[2,3-b]pyridin-5-yl)oxy)-4-(4-(1-chloro-6,7,8,9-tetrahydro-5H-benzo[7]annulen-5-yl)piperazin-1-y1)-N-((4-(((7,7-dimethylspiro[3.5]nonan-2-yl)methyl)amino)-3-nitrophenyl)sulfonyl)benzamide] | > 5

Each compound was assayed against T1, BCL-2 (Homo sapiens, UniProt P10415) (assay: HTRF BCL-2/BAK assay (Cisbio)). Settings: recombinant human Tag1-BCL-2 2 nM, Tag2-BAK 10 nM.
T1 construct: purchased Cisbio 63ADK000CB01PEG
Assay type: binding
Procedure: Then the pre-mixed anti-Tag1-Eu^3+ and anti-tag2-XL665 were added to the plate and further incubated at room temperature for another 2 hours. The signals ([…]) were read on Envision 2104 instrument. The IC50 for each compound was derived from fitting the signal of 665/615 nM to the increasing compound concentration.
Using the above assays, the following compounds were tested.

T1 sequence (P10415 whole entry): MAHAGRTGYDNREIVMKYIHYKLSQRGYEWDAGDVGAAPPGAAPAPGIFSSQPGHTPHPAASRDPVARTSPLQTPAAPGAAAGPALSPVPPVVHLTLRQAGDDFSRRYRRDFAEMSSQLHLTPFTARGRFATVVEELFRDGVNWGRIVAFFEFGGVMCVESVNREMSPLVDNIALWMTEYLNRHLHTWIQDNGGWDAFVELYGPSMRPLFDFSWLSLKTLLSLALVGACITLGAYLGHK

Compound | IC50 [µM]
O=C(NS(=O)(=O)c1cccc([N+](=O)[O-])c1)c1ccc(N2CCN(C3CCCc4ccccc43)CC2)cc1Oc1cnc2[nH]ccc2c1 (stereo not shown) [Compound 1, 2-((1H-pyrrolo[2,3-b]pyridin-5-yl)oxy)-N-((3-nitrophenyl)sulfonyl)-4-(4-(1,2,3,4-tetrahydronaphthalen-1-yl)piperazin-1-yl)benzamide] | 0.2 to 2
O=C(NS(=O)(=O)c1ccc(NCC2CCOCC2)c([N+](=O)[O-])c1)c1ccc(N2CCN(C3CCCc4ccccc43)CC2)cc1Oc1cnc2[nH]ccc2c1 (stereo not shown) [Compound 2, 2-((1H-pyrrolo[2,3-b]pyridin-5-yl)oxy)-N-((3-nitro-4-(((tetrahydro-2H-pyran-4-yl)methyl)amino)phenyl)sulfonyl)-4-(4-(1,2,3,4-tetrahydronaphthalen-1-yl)piperazin-1-yl)benzamide] | 0.02 to 0.2
O=C(NS(=O)(=O)c1cccc([N+](=O)[O-])c1)c1ccc(N2CCN(C3CCc4ccccc43)CC2)cc1Oc1cnc2[nH]ccc2c1 (stereo not shown) [Compound 3, 2-((1H-pyrrolo[2,3-b]pyridin-5-yl)oxy)-4-(4-(2,3-dihydro-1H-inden-1-yl)piperazin-1-yl)-N-((3-nitrophenyl)sulfonyl)benzamide] | 0.2 to 2
O=C(NS(=O)(=O)c1cccc([N+](=O)[O-])c1)c1ccc(N2CCN(C3CCCc4cccc(-c5ccccc5)c43)CC2)cc1Oc1cnc2[nH]ccc2c1 (stereo not shown) [Compound 8, 2-((1H-pyrrolo[2,3-b]pyridin-5-yl)oxy)-N-((3-nitrophenyl)sulfonyl)-4-(4-(8-phenyl-1,2,3,4-tetrahydronaphthalen-1-yl)piperazin-1-yl)benzamide] | 0.2 to 2
O=C(NS(=O)(=O)c1cccc([N+](=O)[O-])c1)c1ccc(N2CCN(C3CCOc4ccccc43)CC2)cc1Oc1cnc2[nH]ccc2c1 (stereo not shown) [Compound 9, 2-((1H-pyrrolo[2,3-b]pyridin-5-yl)oxy)-4-(4-(chroman-4-yl)piperazin-1-yl)-N-((3-nitrophenyl)sulfonyl)benzamide] | 0.2 to 2
O=C(NS(=O)(=O)c1cccc([N+](=O)[O-])c1)c1ccc(N2CCN(C3CCCc4cccc(-c5ccsc5)c43)CC2)cc1Oc1cnc2[nH]ccc2c1 (stereo not shown) [Compound 11, 2-((1H-pyrrolo[2,3-b]pyridin-5-yl)oxy)-N-((3-nitrophenyl)sulfonyl)-4-(4-(8-(thiophen-3-yl)-1,2,3,4-tetrahydronaphthalen-1-yl)piperazin-1-yl)benzamide] | 0.2 to 2
O=C(NS(=O)(=O)c1cccc([N+](=O)[O-])c1)c1ccc(N2CCN(C3CCCc4cccc(-c5cccc(Cl)c5)c43)CC2)cc1Oc1cnc2[nH]ccc2c1 (stereo not shown) [Compound 14, 2-((1H-pyrrolo[2,3-b]pyridin-5-yl)oxy)-4-(4-(8-(3-chlorophenyl)-1,2,3,4-tetrahydronaphthalen-1-yl)piperazin-1-yl)-N-((3-nitrophenyl)sulfonyl)benzamide] | 0.2 to 2
O=C(NS(=O)(=O)c1cccc([N+](=O)[O-])c1)c1ccc(N2CCN(C3CCCc4cccc(-c5cccs5)c43)CC2)cc1Oc1cnc2[nH]ccc2c1 (stereo not shown) [Compound 15, 2-((1H-pyrrolo[2,3-b]pyridin-5-yl)oxy)-N-((3-nitrophenyl)sulfonyl)-4-(4-(8-(thiophen-2-yl)-1,2,3,4-tetrahydronaphthalen-1-yl)piperazin-1-yl)benzamide] | 0.2 to 2
